The results in this text go back to patent US20150250713A1, “Pharmaceutical Composition” (CIPLA LIMITED, priority 2012, published 2015).

This series is described as follows: Moisture uptake of HFA propellants. The format is physicochemical. Particulars: ratio versus HFA-227 (measured values).

Molecules are shown by their SMILES.

Turning to `FCC(F)(F)F` [HFA-134 (a), 1,1,1,2-tetrafluoroethane], the “moisture uptake compared to HFA-227” value is on record as “six times higher”.
